Assays:
[1] = test system: ultraviolet-induced erythema; assay: Ultraviolet-induced erythema, erythema scale; format: in vivo; conditions: for Erythema score (mean ± SD): scale 0 none to 4 severe
Method: The anti-inflammatory activity of GC-100 was evaluated using ultraviolet-induced erythema as an endpoint.
Ultraviolet radiation generates a predictable, dose-dependent cutaneous response over time. The pathological mechanism includes injury to epidermal, dermal, and vascular constituents of the skin with a local inflammatory response mediated by proinflammatory cytokines and prostaglandins. It is the objective of this experiment to determine whether GC-100 can alleviate an ultraviolet-mediated inflammatory response by qualitative assessment
Erythema was quantified after 2, 4, 5, and 24 hours following irradiation using a standard erythema scale that has been shown historically to yield reproducible results.

[2] = test system: human diploid fibroblasts; assay: Fibroblast proliferation (MTT) in suboptimal nutritional medium; format: cell-based; conditions: for Cells/well (×10^3): control 15
Text: This Example quantifies the biostimulating activity of GC-100 on human diploid fibroblasts in a suboptimal nutritional environment.
Cellular proliferation, or mitotic activity, will be assessed using an MTT assay. MTT added to the microtiter wells is metabolized by succinate dehydrogenase of the citric acid cycle. Since the metabolism of MTT is dependent on mitochondrial activity, the amount of metabolite produced can be correlated with the number of viable cells present per well. The metabolite concentration is measured via spectrophotometry, with the absorption value converted to an absolute number that describes cellular growth based on standardized curves. The results are shown in Table 2 and FIG. 5, which is a graph showing fibroblast proliferation in a suboptimal nutritional environment.

[3] = test system: hepatocytes; assay: Cellular O2 consumption measured with an oxygraph; format: cell-based; conditions: 3% GC-100
Text: Increased cellular respiration may be equated with more efficient use of cellular reserves (e.g., polysaccharides & triglycerides) and improved elimination of metabolic waste. The end result of enhanced cellular respiration is cellular regeneration and restoration of the organ system being evaluated. The activation of cellular respiration can be evaluated using an oxygraph. Since the oxygraph electrode response is directly proportional to the concentration of dissolved O2 in the test media, a measure of cellular O2 consumption can be calculated to yield information on changes in cellular respiration. […] FIG. 4 is a graph showing hepatocyte oxygen consumption in the presence of GC-100 at various concentrations.

[4] = test system: lysyl oxidase; assay: Lysyl oxidase activity in wound-margin biopsies after surgical and xylene injury; format: in vivo, nude mice
Method: The dermotrophic effect of GC-100 was also determined using lysyl oxidase levels as an endpoint to determine whether GC-100 can effect the concentration of lysyl oxidase in wounded tissues and to establish whether GC-100 can accelerate the wound healing process using qualitative measurements.
Nude mice were chosen because their skin (and their lack of hair) is more similar to human skin than are other commonly used laboratory test animals. The test population was divided into 4 groups of 10 nude mice for the purpose of examining the best application sequence for GC-100 relative to injury. Group definitions are as follows:
A surgical wound measuring 2.54 cm in length and penetrating the dermis was made on the right hind quarter of all test subjects after appropriate anesthesia was administered.
A second index of injury using 1% xylene was used in all test subjects after creation of the surgical wound. Using a sterile tuberculin syringe, 0.1 mL of a 1% xylene solution was injected subcutaneously into the region of the surgical wound. The final size of the injury measured 25×20 mm^2.
The mice in Groups II, III, and IV were divided randomly after physical and chemical injury into 2 subgroups of 5 mice each for application of either GC-100 0.5% or 1%. Pretreatment for Group II and IV mice was conducted one hour prior to any injury, where GC-100 0.5% and 1% was rubbed into the right hind quarter of the designated mice for 50 cycles using a nylon glove. Post-treatment for mice in Group III and IV with GC-100 0.5% and 1% was conducted immediately after injury.
Wound recovery was determined over 30 days using cutaneous punch biopsies that were taken on post injury day 4, and at the conclusion of weeks 2, 3, and 4 from the wound margins. Biopsy specimens were analyzed for lysyl oxidase activity using a standard assay. Results are shown in Table 3 and FIG. 6, which is a graph showing percent lysyl oxidase as a function of treatment schedule and GC-100 concentration.

H-Lys-Pro-NH2 [GC-100]
% printed under erythema score (reduction vs control) ([1]; 0.1% GC-100, 2 hrs): 32%
Erythema score (mean ± SD) ([1]; 0.1% GC-100, 2 hrs after irradiation): 1.89 ± 0.60
% printed under erythema score (reduction vs control) ([1]; 0.1% GC-100, 4 hrs): 58.7%
Erythema score (mean ± SD) ([1]; 0.1% GC-100, 4 hrs after irradiation): 1.56 ± 0.53
% printed under erythema score (reduction vs control) ([1]; 0.1% GC-100, 5 hrs): 58.3%
Erythema score (mean ± SD) ([1]; 0.1% GC-100, 5 hrs after irradiation): 1.67 ± 0.71
% printed under erythema score (reduction vs control) ([1]; 0.1% GC-100, 24 hrs): 50%
Erythema score (mean ± SD) ([1]; 0.1% GC-100, 24 hrs after irradiation): 1.00 ± 0.71
effect on ultraviolet-induced erythema ([1]; 0.1%, 0.5%, 1% GC-100, greatest activity with 1%): ability to suppress ultraviolet-induced erythema
% printed under erythema score (reduction vs control) ([1]; 0.5% GC-100, 2 hrs): 56.1%
Erythema score (mean ± SD) ([1]; 0.5% GC-100, 2 hrs after irradiation): 1.22 ± 0.44
% printed under erythema score (reduction vs control) ([1]; 0.5% GC-100, 4 hrs): 58.7%
Erythema score (mean ± SD) ([1]; 0.5% GC-100, 4 hrs after irradiation): 1.56 ± 0.53
% printed under erythema score (reduction vs control) ([1]; 0.5% GC-100, 5 hrs): 58.7%
Erythema score (mean ± SD) ([1]; 0.5% GC-100, 5 hrs after irradiation): 1.56 ± 0.53
% printed under erythema score (reduction vs control) ([1]; 0.5% GC-100, 24 hrs): 55.5%
Erythema score (mean ± SD) ([1]; 0.5% GC-100, 24 hrs after irradiation): 0.89 ± 0.33
% printed under erythema score (reduction vs control) ([1]; 1.0% GC-100, 2 hrs): 64%
Erythema score (mean ± SD) ([1]; 1.0% GC-100, 2 hrs after irradiation): 1.00
% printed under erythema score (reduction vs control) ([1]; 1.0% GC-100, 4 hrs): 67%
Erythema score (mean ± SD) ([1]; 1.0% GC-100, 4 hrs after irradiation): 1.22 ± 0.44
% printed under erythema score (reduction vs control) ([1]; 1.0% GC-100, 5 hrs): 66.81%
Erythema score (mean ± SD) ([1]; 1.0% GC-100, 5 hrs after irradiation): 1.33 ± 0.50
% printed under erythema score (reduction vs control) ([1]; 1.0% GC-100, 24 hrs): 83.5%
Erythema score (mean ± SD) ([1]; 1.0% GC-100, 24 hrs after irradiation): 0.33 ± 0.50
Cells/well (×10^3) ([2]; 0.1% GC-100): 17 ×10^3 cells/well
Cells/well (×10^3) ([2]; 0.5% GC-100): 20 ×10^3 cells/well
Cells/well (×10^3) ([2]; 1.0% GC-100): 21 ×10^3 cells/well
Cells/well (×10^3) ([2]; 5% GC-100): 28 ×10^3 cells/well
Cells/well (×10^3) ([2]; 10% GC-100): 24 ×10^3 cells/well
Cumulative fibroblast proliferation (mitosis) ([2]; in the presence of GC-100): 83%
average increase in O2 consumption [3]: 282%±30
% increase O2 consumption ([3]; 57 mg cells): 310%
Final consumption, ha ([3]; 57 mg cells): 1.259 nm O2/min/mg cells
% increase O2 consumption ([3]; 58 mg cells): 260%
Final consumption, ha ([3]; 58 mg cells): 1.003 nm O2/min/mg cells
% increase O2 consumption ([3]; 60 mg cells): 240%
Final consumption, ha ([3]; 60 mg cells): 0.865 nm O2/min/mg cells
% increase O2 consumption ([3]; 63 mg cells): 280%
Final consumption, ha ([3]; 63 mg cells): 0.879 nm O2/min/mg cells
% increase O2 consumption ([3]; 64 mg cells): 320%
Final consumption, ha ([3]; 64 mg cells): 0.954 nm O2/min/mg cells
% lysyl oxidase ([4]; Group II pretreatment, 0.5% GC-100, Day 4): 1.4%
% lysyl oxidase ([4]; Group II pretreatment, 0.5% GC-100, Week 2): 10.2%
% lysyl oxidase ([4]; Group II pretreatment, 0.5% GC-100, Week 3): 13.4%
% lysyl oxidase ([4]; Group II pretreatment, 0.5% GC-100, Week 4): 45.9%
% lysyl oxidase ([4]; Group II pretreatment, 1% GC-100, Day 4): 5.2%
% lysyl oxidase ([4]; Group II pretreatment, 1% GC-100, Week 2): 18.2%
% lysyl oxidase ([4]; Group II pretreatment, 1% GC-100, Week 3): 23.4%
% lysyl oxidase ([4]; Group II pretreatment, 1% GC-100, Week 4): 45.9%
% lysyl oxidase ([4]; Group III post-treatment, 0.5% GC-100, Day 4): 1.2%
% lysyl oxidase ([4]; Group III post-treatment, 0.5% GC-100, Week 2): 3.2%
% lysyl oxidase ([4]; Group III post-treatment, 0.5% GC-100, Week 3): 19.8%
% lysyl oxidase ([4]; Group III post-treatment, 0.5% GC-100, Week 4): 48.7%
% lysyl oxidase ([4]; Group III post-treatment, 1% GC-100, Day 4): 5.3%
% lysyl oxidase ([4]; Group III post-treatment, 1% GC-100, Week 2): 11.5%
% lysyl oxidase ([4]; Group III post-treatment, 1% GC-100, Week 3): 19.7%
% lysyl oxidase ([4]; Group III post-treatment, 1% GC-100, Week 4): 49.6%
% lysyl oxidase ([4]; Group IV pre- & post-treatment, 0.5% GC-100, Day 4): 21%
% lysyl oxidase ([4]; Group IV pre- & post-treatment, 0.5% GC-100, Week 2): 30.1%
% lysyl oxidase ([4]; Group IV pre- & post-treatment, 0.5% GC-100, Week 3): 42.4%
% lysyl oxidase ([4]; Group IV pre- & post-treatment, 0.5% GC-100, Week 4): 52.8%
% lysyl oxidase ([4]; Group IV pre- & post-treatment, 1% GC-100, Day 4): 47.2%
% lysyl oxidase ([4]; Group IV pre- & post-treatment, 1% GC-100, Week 2): 50.5%
% lysyl oxidase ([4]; Group IV pre- & post-treatment, 1% GC-100, Week 3): 58.8%
% lysyl oxidase ([4]; Group IV pre- & post-treatment, 1% GC-100, Week 4): 62.7%
